# How the values were obtained:
# MKN45 gastric xenografts = assay: Xenograft tumor model MKN45; assay type: in vivo, mice
# Method: (§1) Human glioblastoma cells U87MG, human gastric cancer cells MKN45, or human pancreatic KP4 cells are cultured and implanted subcutaneously in the rear flank of female CD-1 nu/nu strain mice which have been acclimated for one week in the animal facility after receipt from the vendor. Mice are randomized into groups of 10 mice per group. Testing compound is prepared in an appropriate vehicle and is administered by oral gavage when tumors are established (7-21 days after implant, or when the mean tumor volume reaches ˜100 mm^3). Tumor response is determined by tumor volume measurement performed twice a week during the course of treatment. Fluctuations in body weight are also monitored as a general measurement of toxicity. The compound of example 1 is orally administered twice a day for 28 days.
# (§2) For statistical analysis, the individual subject tumor volumes are transformed to log volume and are analyzed with a two-way repeated measures analysis of variance by time and treatment using the MIXED procedures in SAS software (version 8.2). The correlation model for the repeated measures is spatial power. Treated groups are compared to the control group at the final time point. The MIXED procedure is also used separately for each treatment group to calculate adjusted means and standard errors at each time point. Both analyses account for the autocorrelation within each subject.
# [1] = tested on: KP4 pancreatic xenografts; assay: Xenograft tumor model KP4; assay type: in vivo, mice
# Method: as §1, §2
# [2] = biological target: T1, Met (pY1349) in NCl-H460 cells (Homo sapiens, UniProt P08581); assay: HGF stimulated Met (pY1349) NCI-H460 cell-based ELISA; settings: HGF 100 ng/mL stimulated NCI-H460 cells; read-out: relative IC50, H460 assay (c-Met phosphorylation)
# T1 construct: host or cells: NCI-H460
# T1 sequence (P08581 25-1390): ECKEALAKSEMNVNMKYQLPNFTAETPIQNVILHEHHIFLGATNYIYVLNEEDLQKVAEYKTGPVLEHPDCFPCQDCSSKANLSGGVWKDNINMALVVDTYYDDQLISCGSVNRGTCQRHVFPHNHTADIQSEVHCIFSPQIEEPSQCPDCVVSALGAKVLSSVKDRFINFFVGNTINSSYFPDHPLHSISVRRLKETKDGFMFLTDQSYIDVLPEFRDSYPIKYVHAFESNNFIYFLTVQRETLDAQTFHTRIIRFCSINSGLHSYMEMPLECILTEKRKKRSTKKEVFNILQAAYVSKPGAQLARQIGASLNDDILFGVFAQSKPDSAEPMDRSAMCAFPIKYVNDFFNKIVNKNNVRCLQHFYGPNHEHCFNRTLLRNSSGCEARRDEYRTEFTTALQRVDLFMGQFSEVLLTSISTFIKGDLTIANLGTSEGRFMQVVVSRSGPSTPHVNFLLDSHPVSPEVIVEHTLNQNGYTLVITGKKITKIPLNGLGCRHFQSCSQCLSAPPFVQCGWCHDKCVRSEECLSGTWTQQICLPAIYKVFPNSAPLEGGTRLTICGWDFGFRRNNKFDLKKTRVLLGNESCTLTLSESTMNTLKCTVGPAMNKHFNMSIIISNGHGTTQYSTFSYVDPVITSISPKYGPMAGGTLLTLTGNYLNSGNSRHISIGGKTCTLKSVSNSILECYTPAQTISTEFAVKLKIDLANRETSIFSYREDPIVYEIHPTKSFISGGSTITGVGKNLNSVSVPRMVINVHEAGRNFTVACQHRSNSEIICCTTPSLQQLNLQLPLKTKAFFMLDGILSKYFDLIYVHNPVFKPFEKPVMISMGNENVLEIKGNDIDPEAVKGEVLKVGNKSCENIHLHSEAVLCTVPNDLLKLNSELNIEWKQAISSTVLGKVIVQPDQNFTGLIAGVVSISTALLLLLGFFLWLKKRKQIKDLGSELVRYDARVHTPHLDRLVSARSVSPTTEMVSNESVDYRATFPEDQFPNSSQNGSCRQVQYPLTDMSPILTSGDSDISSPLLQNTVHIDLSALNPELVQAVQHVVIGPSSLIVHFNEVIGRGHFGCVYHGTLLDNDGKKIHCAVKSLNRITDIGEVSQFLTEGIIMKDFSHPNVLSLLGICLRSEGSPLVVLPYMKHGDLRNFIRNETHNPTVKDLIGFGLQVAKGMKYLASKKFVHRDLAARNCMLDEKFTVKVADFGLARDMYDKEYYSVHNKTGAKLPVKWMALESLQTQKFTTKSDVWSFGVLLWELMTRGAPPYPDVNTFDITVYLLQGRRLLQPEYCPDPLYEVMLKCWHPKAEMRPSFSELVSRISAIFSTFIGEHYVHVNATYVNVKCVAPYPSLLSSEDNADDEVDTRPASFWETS
# Method: NCl—H460 cells (purchased from ATCC) are cultured in RPMI 1640 media (Invitrogen) supplemented with 10% Fetal Bovine Serum (FBS) and plated (prior to becoming 70% confluent) in 96-well flat-bottom plates at a density of 20,000 cells per well in 80 μL volume. The cells are then incubated overnight in a cell culture incubator (5% CO2, 95% Relative Humidity (RH) and 37° C.) and allowed to attach to the plate. The following morning the cells are washed with 2 volumes of a Reduced Serum Media (RSM, RPMI 1640 media supplemented with 0.5% FBS). After removal of the last wash, 80 μL of RSM is added to each well of the cell plates. The cell plates are incubated for 2.5 h in a cell culture incubator, and then dosed with compounds. Compound inhibitors are first solubilized at 10 mM in 100% DMSO and then diluted to 100 μM with 2% DMSO RSM. […] After 1 h capture (at RT) the MSD® plate wells are washed with 1× Tris Wash Buffer, and then 150 μL of 1× Read Buffer T (with surfactant, MSD®) is added. Immediately after the addition of the Read Buffer, the plates are analyzed with a SECTOR 6000 MSD® Imager plate reader. Relative IC50 values are determined using MSD activity units by calculating percent inhibition with respect to on-plate “MIN” and “MAX” controls and then fitting the percent inhibition values and ten-point dose response data to a four-parameter logistic equation.
# [3] = 4 mg/kg oral twice a day for 28 days
# [4] = 8 mg/kg oral twice a day for 28 days
# [5] = 16 mg/kg oral twice a day for 28 days
# [6] = 32 mg/kg oral twice a day for 28 days
smiles,measurement,setting,value
"Cn1cc(-c2ccc3nnc(Sc4ccc5nn(C)cc5c4)n3n2)cn1 [Example 1, 6-(1-Methyl-1H-pyrazol-4-yl)-3-(2-methyl-2H-indazol-5-ylthio)-[1,2,4]triazolo[4,3-b]pyridazine]",Mean Tumor Volume ± Standard Error,MKN45 gastric xenografts; [3],329 ± 54 mm^3
same,Mean Tumor Volume ± Standard Error,MKN45 gastric xenografts; [4],296 ± 29 mm^3
same,Mean Tumor Volume ± Standard Error,MKN45 gastric xenografts; [5],166 ± 10 mm^3
same,Mean Tumor Volume ± Standard Error,MKN45 gastric xenografts; [6],161 ± 14 mm^3
same,Mean Tumor Volume ± Standard Error,[1]; 2 mg/kg oral twice a day for 28 days,1229 ± 83 mm^3
same,Mean Tumor Volume ± Standard Error,[1]; [3],1085 ± 256 mm^3
same,Mean Tumor Volume ± Standard Error,[1]; [4],627 ± 74 mm^3
same,Mean Tumor Volume ± Standard Error,[1]; [5],554 ± 47 mm^3
same,Mean Tumor Volume ± Standard Error,[1]; [6],273 ± 42 mm^3
same,IC50,[2],36 nM
